Test results as given in the supplement of paper PMC10307832.

Columns and labels:
IU1-47 + Dasatinib = compound: CC1=CC(=C(N1C2=CC=C(C=C2)Cl)C)C(=O)CN3CCCCC3 [IU1-47] + Cc1nc(Nc2ncc(C(=O)Nc3c(C)cccc3Cl)s2)cc(N2CCN(CCO)CC2)n1 [Dasatinib] (partner 0.075 µM); assay: relative viability (nuclei count vs DMSO), 5 days (fraction); higher = more cells survive
How it was run: (§1)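 Lung cancer cell lines were pin-tool dosed in 1536-well plates on the day after seeding, with either a lone drug or a fixed anchor-drug dose plus five library-drug doses (not always all listed) in √10 steps. Nuclei were counted on 4× images after 5 days. Relative viability is the ratio of treated-well to vehicle-well nuclei counts, with each value a median of duplicate plates.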

IU1-47 + Luminespib = compound: CC1=CC(=C(N1C2=CC=C(C=C2)Cl)C)C(=O)CN3CCCCC3 [IU1-47] + CCNC(=O)c1noc(-c2cc(C(C)C)c(O)cc2O)c1-c1ccc(CN2CCOCC2)cc1 [Luminespib] (partner 0.01 µM); assay: as above
How it was run: as §1

Cell Line	relative viability (IU1-47 + Dasatinib; first compound 0.08 µM)	relative viability (IU1-47 + Dasatinib; first compound 0.253 µM)	relative viability (IU1-47 + Dasatinib; first compound 0.8 µM)	relative viability (IU1-47 + Dasatinib; first compound 2.53 µM)	relative viability (IU1-47 + Dasatinib; first compound 8 µM)	relative viability (IU1-47 + Luminespib; first compound 0.08 µM)	relative viability (IU1-47 + Luminespib; first compound 0.253 µM)	relative viability (IU1-47 + Luminespib; first compound 0.8 µM)	relative viability (IU1-47 + Luminespib; first compound 2.53 µM)	relative viability (IU1-47 + Luminespib; first compound 8 µM)
NCI-H522	0.807	0.872	0.748	0.759	0.907	1.32	1.27	1.35	0.864	1.23
HCC-15	0.687	0.749	0.685	0.564	0.519	0.442	0.379	0.389	–	0.358
A-427	0.851	0.656	0.728	–	0.642	0.999	0.89	0.971	1.04	0.872
NCI-H2228	0.625	0.581	0.471	0.363	0.43	0.154	0.122	0.162	0.144	0.132
NCI-H1734	0.493	0.531	0.461	–	0.406	0.181	0.202	0.18	–	0.215
PC-14	0.223	0.257	0.209	0.226	0.205	0.185	0.168	0.186	0.151	0.179
NCI-H1915	0.318	0.3	0.334	–	0.306	0.816	0.804	0.848	–	0.728
NCI-H1666	0.79	0.806	0.761	0.793	0.676	1.08	1.02	0.938	0.942	0.854
HCC-366	0.679	0.694	0.621	0.689	0.584	–	–	–	–	–
SK-MES-1	0.376	0.467	0.335	0.405	0.315	0.965	0.891	0.87	0.897	0.839
SW 1573	0.498	0.524	0.584	0.551	0.577	0.196	0.179	0.129	0.261	0.23
NCI-H661	0.884	0.879	0.83	0.77	0.695	0.901	0.936	1.01	0.924	0.877
PC-3 [JPC-3]	1.01	1.02	0.982	0.956	0.788	0.822	0.695	0.723	0.466	0.603
NCI-H1623	0.588	0.571	0.588	0.591	0.555	0.602	0.611	0.519	0.456	0.661
LC-2-ad	0.466	0.524	0.523	0.491	0.42	1.23	1.04	0.883	0.766	1.15
CAL-12T	0.413	0.388	0.436	0.263	0.344	0.878	0.291	0.363	0.438	0.495
RERF-LC-KJ	0.926	0.947	0.817	0.877	0.781	1.22	1.3	1.34	1.24	1.39
NCI-H1650	0.269	0.311	0.283	0.292	0.27	0.169	0.201	0.18	0.175	0.221
BEN	0.296	0.358	0.394	–	0.304	0.362	0.459	0.414	–	0.344
EMC-BAC-2	0.373	0.336	0.356	0.324	0.326	1.4	1.32	1.28	1.26	0.93
LU99A	0.756	0.499	0.457	0.659	0.462	0.32	0.182	0.273	0.302	0.259
ABC-1	0.696	0.603	0.615	–	0.542	0.957	1.01	1.02	–	0.733
NCI-H2170	0.601	0.737	0.558	0.526	0.497	0.706	1.13	0.759	0.66	0.994

Cell Line	relative viability (IU1-47 + Dasatinib; first compound 0.08 µM)	relative viability (IU1-47 + Dasatinib; first compound 0.253 µM)	relative viability (IU1-47 + Dasatinib; first compound 0.8 µM)	relative viability (IU1-47 + Dasatinib; first compound 2.53 µM)	relative viability (IU1-47 + Dasatinib; first compound 8 µM)	relative viability (IU1-47 + Luminespib; first compound 0.08 µM)	relative viability (IU1-47 + Luminespib; first compound 0.253 µM)	relative viability (IU1-47 + Luminespib; first compound 0.8 µM)	relative viability (IU1-47 + Luminespib; first compound 2.53 µM)	relative viability (IU1-47 + Luminespib; first compound 8 µM)
NCI-H2347	0.307	0.307	0.318	0.285	0.342	0.233	0.363	0.642	0.513	0.32
NCI-H1993	0.497	0.732	0.651	0.548	0.571	0.857	0.888	0.804	0.868	0.716
NCI-H322M	0.251	0.251	0.257	0.265	0.238	1.03	0.929	0.922	0.879	0.715
NCI-H838	0.31	0.31	0.32	0.3	0.281	0.31	0.347	0.262	0.243	0.282
HARA	0.273	0.184	0.325	–	0.276	0.858	0.98	1.66	–	0.49
NCI-H2087	0.963	0.973	1.12	–	0.681	0.194	0.166	0.18	–	0.163
NCI-H1437	0.369	0.348	0.384	0.35	0.365	1.2	1.1	1.21	1.11	1.1
NCI-H2342	0.328	0.344	0.32	0.301	0.307	0.698	0.679	0.775	0.713	0.745
NCI-H1792	0.937	0.876	1.03	0.556	0.803	0.573	0.358	0.515	0.308	0.568
ChaGo-K-1	0.524	0.557	0.707	0.643	0.544	0.623	0.618	0.713	0.671	0.703
NCI-H650	0.457	0.439	0.476	0.427	0.445	0.849	0.81	0.831	0.671	0.828
COR-L23	0.517	0.504	0.585	0.537	0.551	0.836	0.85	0.71	0.817	0.675
COR-L 105	0.307	0.303	0.332	0.248	0.307	0.775	0.673	1	0.809	0.696
LK-2	0.221	0.185	0.264	0.24	0.28	0.235	0.165	0.175	0.213	0.17
201T	0.542	0.604	0.622	–	0.587	1.1	1.08	1.15	–	1.07
HCC-44	–	–	–	–	–	1.17	1.03	1.11	0.987	1.21
NCI-H596	0.574	0.617	0.606	0.595	0.554	0.926	1.05	1	1.12	0.752
H3255	0.371	0.491	0.385	0.366	0.387	1.09	1	0.757	0.41	0.888
NCI-H647	0.171	0.179	–	0.155	0.177	0.409	0.276	0.125	0.221	0.176
NCI-H2023	0.564	0.521	0.657	0.347	0.55	0.777	0.902	0.913	0.885	0.768
NCI-H23	0.925	0.625	0.9	0.671	0.743	0.206	0.237	0.203	0.229	0.209
NCI-H1944	0.213	0.214	0.204	0.2	0.203	0.989	0.764	0.832	0.729	0.778
NCI-H1793	0.458	0.298	0.403	–	0.409	0.177	0.188	0.165	–	0.171

Cell Line	relative viability (IU1-47 + Dasatinib; first compound 0.08 µM)	relative viability (IU1-47 + Dasatinib; first compound 0.253 µM)	relative viability (IU1-47 + Dasatinib; first compound 0.8 µM)	relative viability (IU1-47 + Dasatinib; first compound 2.53 µM)	relative viability (IU1-47 + Dasatinib; first compound 8 µM)	relative viability (IU1-47 + Luminespib; first compound 0.08 µM)	relative viability (IU1-47 + Luminespib; first compound 0.253 µM)	relative viability (IU1-47 + Luminespib; first compound 0.8 µM)	relative viability (IU1-47 + Luminespib; first compound 2.53 µM)	relative viability (IU1-47 + Luminespib; first compound 8 µM)
NCI-H520	0.197	0.172	0.203	0.217	0.166	0.259	0.238	0.248	0.285	0.248
NCI-H460	0.68	0.508	0.654	0.538	0.501	0.0244	0.0322	0.0367	0.0341	0.0295
EKVX	0.564	0.577	0.691	0.34	0.389	1.01	1.05	0.881	1.02	0.978
NCI-H358	0.147	0.142	0.156	0.168	0.211	0.366	0.328	0.347	0.3	0.349
EPLC-272H	0.371	0.459	0.322	–	0.35	0.382	0.261	0.221	–	0.315
NCI-H1563	0.532	0.481	0.429	0.462	0.447	0.468	0.52	0.538	0.506	0.497
NCI-H1395	0.422	0.451	0.457	0.374	0.374	0.678	0.715	0.547	0.597	0.813
NCI-H2126	0.596	0.717	0.724	–	0.601	0.928	0.975	0.949	–	0.899
LXF-289	0.219	0.24	0.179	0.223	0.209	0.822	0.629	0.916	0.5	0.468
NCI-H2009	0.257	0.263	0.293	0.231	0.241	1.09	1.04	0.986	1.01	1.05
SW 900	0.664	0.529	0.7	0.556	0.742	0.191	0.172	0.181	0.176	0.194
NCI-H2405	0.21	0.234	0.208	0.206	0.208	0.77	0.824	0.739	0.694	0.804
NCI-H1755	0.455	0.528	0.426	0.409	0.36	0.273	0.465	0.325	0.479	0.451
HCC-78	0.378	0.389	0.324	0.373	0.336	–	–	–	–	–
LOU-NH91	0.597	0.581	0.605	0.608	0.534	0.326	0.299	0.294	0.276	0.336
NCI-H3122	–	0.816	0.854	0.892	1.01	–	0.08	0.0904	0.108	0.106
HCC-827	0.345	0.366	0.301	0.288	0.387	0.819	0.588	0.818	0.573	0.648
SK-LU-1	0.208	0.187	0.182	0.18	0.159	0.202	0.197	0.204	0.238	0.207
NCI-H1975	0.329	0.343	0.372	0.318	0.361	0.142	0.198	0.199	0.228	0.37
NCI-H1651	0.325	0.412	0.454	0.414	0.39	0.876	0.85	0.924	0.974	0.819
NCI-H441	0.717	0.655	0.679	0.471	0.576	0.328	0.336	0.478	0.379	0.343
LCLC-103H	0.49	0.471	0.491	0.465	0.345	1.11	0.982	1.03	0.818	0.989
LCLC-97TM1	0.98	0.971	1.03	0.841	0.776	0.846	0.757	0.834	0.716	0.787
